Test system: p-METTL3 (S43)
Assay: p-METTL3 (S43) in A375 cells, IP with METTL3 antibody followed by immunoblot
Assay type: cell-based, human
Settings: 1 h, 1 μM dabrafenib, 1 μM PLX-4720, 10 μM PD0325901, 0.1 μM trametinib
Excerpt: FIGS. 10A-10G: ERK Interacts and Phosphorylates METTL3 and WTAP. (A-C) Mass spectrometry detected S43, S50 and S525 phosphorylation in METTL3 in 293T cells co-transfected with B-RAF V600E. (D) Characterization of anti-p-METTL3 (S43) antibodies of 293T cells transfected as indicated with MEK S218D/S222D, HER2 V659E, B-RAF V600E and WT or non-phosphorylatable alanine mutant (3A) METTL3. (E) The METTL3 S43 phosphorylation was identified by in vitro kinase assays, in which purified METTL3-METTL14 were incubated with activated ERK2. (F) A375 cells were treated with 1 μM dabrafenib, 1 μM PLX-4720, 10 μM PD0325901, 0.1 μM tramentib for 1 h. Cell lysates were subjected to IP with METTL3 antibody followed by immunoblot. (G) Phos-tag SDS-PAGE showing the phosphorylation status of WT or non-phosphorylatable alanine mutants of mice WTAP in 293T cells co-transfected with B-RAF. 2A, T298A/S341A.
To investigate METTL3 phosphorylation by ERK inside cells, a polyclonal antibody was generated that targets S43-phosphorylated METTL3. This antibody recognizes S43-phosphorylated METTL3 but not a mutant form of METTL3, METTL3 3A, with all three phosphorylation serine sites replaced with alanine (FIG. 10D). This P-S43 antibody was then used as a tool to monitor METTL3 phosphorylation. […] Furthermore, the p-METTL3 (S43) in A375 cells, a human melanoma cell line with constitutively active ERK due to a B-RAF V600E mutation, was abrogated by treatments with B-RAF inhibitors (dabrafenib and PLX4720) or MEK inhibitors (PD0325901 and trametinib) (FIG. 10F), supporting that S43 phosphorylation on METTL3 is installed through the ERK pathway.
Immunoprecipitation, immunoblotting, and in vitro kinase assay. Immunoprecipitation (IP) and immunoblotting (IB) were performed as previously described (Sun et al., 2016). […] Primary antibodies were detected by HRP-linked secondary antibodies (Cell Signaling) together with SuperSignal West Pico Plus chemiluminescent substrate (Thermo Scientific) and imaged in a FluorChem R system (ProteinSimple).

O=C(NOC[C@H](O)CO)c1ccc(F)c(F)c1Nc1ccc(I)cc1F [PD0325901]
p-METTL3 (S43): abrogated

Reference: US20230123585A1, “COMPOSITIONS AND METHODS FOR TREATING OR PREVENTING CANCER USING DEUBIQUITINASE INHIBITORS” (The University of Chicago, priority 2020, published 2023)
